How the values were obtained:
[1] = Determination of DPPH free radical scavenging ability; format: biochemical; settings: absolute ethanol, 30° C., 30 min, 517 nm
Protocol: (§1) Each of the composition of Examples 9-17, as well as single-component quercetagetin, 6-hydroxykaempferol, patuletin was taken, and the detection of DPPH and hydroxyl radical scavenging ability was performed. The specific test methods are as follows.
[…], 6-hydroxykaempferol, patuletin, and compositions 9-17 were used to prepare sample solutions with concentrations of 1, 2, 3, 4, 5, and 6 μg/ml in absolute ethanol. Then, DPPH was prepared into a 2×10^−4 mol/L solution with absolute ethanol, and 2 mL of blank and sample solution were accurately absorbed and mixed with 2 mL of DPPH solution, respectively, the resultants were placed in a water bath at 30° C. in the dark for 30 min, and the absorbance A (blank) and Asample (sample) were measured at the wavelength of 517 nm.

[2] = Antioxidant effect in fish oil powder (peroxide value); settings: 40° C., 28 days; for Peroxide value of fish oil powder with an addition amount of 10 ppm: 10 ppm (based on active ingredients); for Peroxide value of fish oil powder with an addition amount of 100 ppm: 100 ppm (based on active ingredients)
Protocol: After the antioxidant and fish oil powder were evenly mixed, the resultants were placed in an incubator at 40° C., and samples were taken in 28 days to measure the peroxide value.

[3] = Determination of hydroxyl radical scavenging ability (salicylic acid method); format: biochemical; settings: 37° C., 15 min, 510 nm
Protocol: as §1
Quercetin, 6-hydroxykaempferol, patuletin, and compositions 9-17 were used to prepare sample solutions with concentrations of 100, 150, 200, 250, 300 μg/ml in absolute ethanol. 9 mmol/L salicylic acid-ethanol solution, 9 mmol/L FeSO4 solution and 8.8 mmol/L H2O2 solution were prepared. Then, different samples were added according to the order in the following table, and placed in a water bath at 37° C. for 15 min, and the absorbance at 510 nm was measured.

[4] = Antioxidant effect in lipids: peroxide value of butter; settings: 150 ppm
Protocol: 5 parts of chicken oil and butter were taken respectively, each of which is 100 grams. Each 3 groups of chicken oil experimental groups and butter experimental groups were set up, and the composition of Example 6 was added according to the addition amount of 4, 6 and 8 ppm respectively; each 1 group of chicken oil control group and butter control group were set up, and ethoxyquin was added in an addition amount of 150 ppm; each 1 group of chicken oil blank group and butter blank group were set up, without adding any additives. The additives in each group were mixed evenly with the lipid, placed in a constant temperature incubator at 40° C., and samples were taken at 0, 3, 7, 14, 21 and 28 days to determine their peroxide value.

| DPPH (IC50 μg/ml), half clearance [1] [µg/mL] | Hydroxyl radical scavenging ability (IC50 μg/ml), half clearance [3] [µg/mL] | SMILES | Peroxide value of fish oil powder with an addition amount of 10 ppm [2] [mmol/kg] | Peroxide value of fish oil powder with an addition amount of 100 ppm [2] [mmol/kg] | peroxide value of butter ([4]; Day 0, 40° C.) [mmol/kg] | peroxide value of butter ([4]; Day 3, 40° C.) [mmol/kg] | peroxide value of butter ([4]; Day 7, 40° C.) [mmol/kg] | peroxide value of butter ([4]; Day 14, 40° C.) [mmol/kg] | peroxide value of butter ([4]; Day 21, 40° C.) [mmol/kg] | peroxide value of butter ([4]; Day 28, 40° C.) [mmol/kg] |
| --- | --- | --- | --- | --- | --- | --- | --- | --- | --- | --- |
| 23.62 | 500 | O=c1c(O)c(-c2ccc(O)cc2)oc2cc(O)c(O)c(O)c12 [6-hydroxykaempferol] | 142 | 121 | – | – | – | – | – | – |
| – | – | CCOc1ccc2c(c1)C(C)=CC(C)(C)N2 [Ethoxyquin, ethoxyquin] | – | – | 1.41 ± 0.15 | 1.44 ± 0.142 | 1.62 ± 0.104 | 1.66 ± 0.075 | 1.82 ± 0.1 | 2.02 ± 0.197 |
| 31.98 | 595 | COc1c(O)cc2oc(-c3ccc(O)c(O)c3)c(O)c(=O)c2c1O [Patuletin, patuletin] | 120 | 109 | – | – | – | – | – | – |

| SMILES | DPPH (IC50 μg/ml), half clearance [1] [µg/mL] | Hydroxyl radical scavenging ability (IC50 μg/ml), half clearance [3] [µg/mL] | Peroxide value of fish oil powder with an addition amount of 10 ppm [2] [mmol/kg] | Peroxide value of fish oil powder with an addition amount of 100 ppm [2] [mmol/kg] | peroxide value of butter ([4]; Day 0, 40° C.) [mmol/kg] | peroxide value of butter ([4]; Day 3, 40° C.) [mmol/kg] | peroxide value of butter ([4]; Day 7, 40° C.) [mmol/kg] | peroxide value of butter ([4]; Day 14, 40° C.) [mmol/kg] | peroxide value of butter ([4]; Day 21, 40° C.) [mmol/kg] | peroxide value of butter ([4]; Day 28, 40° C.) [mmol/kg] |
| --- | --- | --- | --- | --- | --- | --- | --- | --- | --- | --- |
| O=c1c(O)c(-c2ccc(O)c(O)c2)oc2cc(O)c(O)c(O)c12 [Quercetagetin, 3,3,4,5,6,7-hexahydroxyflavone] | 14.82 | 412 | 76.5 | 57.3 | – | – | – | – | – | – |
